In article PMC3103057 (Journal of medicinal chemistry, 2011):

Assays:
[1] = tested on: purified GC; test: Purified enzyme assays of GC activity without exogenous cofactors; type: biochemical; conditions: no exogenous activating cofactors
[2] = tested on: wildtype and homozygous mutant N370S GC fibroblasts; test: Chaperone activity: translocation of GC to the lysosome in fibroblasts; type: cell-based, human; conditions: for amount of GC localized to the lysosome: 1 nM to 25 uM, five days incubation, wildtype and mutant fibroblasts; for lysosomal GC protein after treatment: 10 uM, wildtype and N370S GC fibroblasts, GC and LAMP1 antibody staining
[3] = target: T1, N370S glucocerebrosidase (GC) in tissue homogenate (Homo sapiens, UniProt P04062, N409S); type: biochemical; conditions: for reduction of activity (fold, relative to 26ad): N370S tissue homogenate AC50 compared with parent quinazoline 26ad
T1 sequence (P04062 40-536 N409S): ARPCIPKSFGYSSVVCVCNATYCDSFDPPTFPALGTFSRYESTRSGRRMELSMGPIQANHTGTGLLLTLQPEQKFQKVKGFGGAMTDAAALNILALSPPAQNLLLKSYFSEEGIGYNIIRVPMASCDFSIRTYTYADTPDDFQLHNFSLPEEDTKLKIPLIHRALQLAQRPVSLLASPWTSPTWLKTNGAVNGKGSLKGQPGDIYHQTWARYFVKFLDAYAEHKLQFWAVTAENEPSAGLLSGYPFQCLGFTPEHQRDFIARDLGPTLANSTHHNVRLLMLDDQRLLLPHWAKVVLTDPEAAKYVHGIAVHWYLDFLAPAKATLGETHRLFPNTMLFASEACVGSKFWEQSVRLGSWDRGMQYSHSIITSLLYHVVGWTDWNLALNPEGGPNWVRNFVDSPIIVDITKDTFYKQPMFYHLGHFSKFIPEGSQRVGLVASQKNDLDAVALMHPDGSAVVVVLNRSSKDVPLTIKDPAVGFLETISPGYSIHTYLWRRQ

Structure (SMILES): O=S(=O)(c1ccc(Cl)cc1)N1CCN(c2nc(-c3cccs3)nc3ccccc23)CC1 [Compound 10, 4-(4-(4-chlorophenylsulfonyl)piperazin-1-yl)-2-(thiophen-2-yl)quinazoline]
- activity in purified enzyme assays of GC compared with tissue homogenate [1]: greatly diminished

Structure (SMILES): O=S(=O)(c1ccc2ccccc2c1)N1CCN(c2nc(-c3cccs3)nc3ccccc23)CC1 [Compound 14]
- amount of GC localized to the lysosome [2]: clear increase of the amount of GC localized to the lysosome
- lysosomal GC protein after treatment [2]: increased lysosomal GC protein

Structure (SMILES): Cc1ccc(S(=O)(=O)N2CCN(c3nc(-c4cccs4)nc4ccccc34)CC2)cc1 [Compound 26ad, 4-(4-(4-methylphenylsulfonyl)piperazin-1-yl)-2-(thiophen-2-yl)quinazoline]
- IC50 ([3]; "blue" GC enzyme assay, tissue homogenate): 320 nM
- amount of GC localized to the lysosome [2]: clear increase of the amount of GC localized to the lysosome

Structure (SMILES): COc1ccccc1S(=O)(=O)N1CCN(c2nc(-c3cccs3)nc3ccccc23)CC1 [Compound 26ai, 4-(4-(2-methoxyphenylsulfonyl)piperazin-1-yl)-2-(thiophen-2-yl)quinazoline]
- amount of GC localized to the lysosome [2]: clear increase of the amount of GC localized to the lysosome

Structure (SMILES): O=S(=O)(c1ccc2c(c1)OCCO2)N1CCN(c2nc(-c3cccs3)nc3ccccc23)CC1 [Compound 26bs, 4-(4-(2,3-dihydrobenzo[b][1,4]dioxin-6-ylsulfonyl)piperazin-1-yl)-2-(thiophen-2-yl)quinazoline]
- amount of GC localized to the lysosome [2]: clear increase of the amount of GC localized to the lysosome

Structure (SMILES): Cc1ccc(S(=O)(=O)N2CCN(c3nc(-c4cccs4)nc4cccnc34)CC2)cc1 [Compound 72, 2-(thiophen-2-yl)-4-(4-tosylpiperazin-1-yl)pyrido[3,2-d]pyrimidine]
- reduction of activity (fold, relative to 26ad) [3]: at least 10 times

Structure (SMILES): Cc1ccc(S(=O)(=O)N2CCN(c3nc(-c4cccs4)nc4ncccc34)CC2)cc1 [Compound 73, 2-(thiophen-2-yl)-4-(4-tosylpiperazin-1-yl)pyrido[2,3-d]pyrimidine]
- reduction of activity (fold, relative to 26ad) [3]: at least 10 times

Structure (SMILES): Cc1ccc(S(=O)(=O)N2CCN(c3ccnc(-c4cccs4)n3)CC2)cc1 [Compound 74, 2-(thiophen-2-yl)-4-(4-tosylpiperazin-1-yl)pyrimidine]
- reduction of activity (fold, relative to 26ad) [3]: 32 times

Structure (SMILES): Cc1ccc(S(=O)(=O)N2CCN(c3nc(-c4cccs4)nc(C)c3C)CC2)cc1 [Compound 76, 4,5-dimethyl-2-(thiophen-2-yl)-6-(4-tosylpiperazin-1-yl)pyrimidine]
- reduction of activity (fold, relative to 26ad) [3]: 10 times

Structure (SMILES): OC[C@H]1CNC[C@@H](O)[C@@H]1O [Isofagomine, reference compound]
- lysosomal GC protein after treatment [2]: increased lysosomal GC protein
